Experimental data from patent publication US20250241892A1, “5-METHOXY-N,N-[…][…] THE TREATMENT OF PSYCHOMOTOR RETARDATION” (GH RESEARCH IRELAND LIMITED, priority 2022, published 2025).

Experiments:
[1] = system: patients with treatment-resistant major depressive disorder (TRD); experiment: Phase 1/2 clinical trial of inhaled 5-MeO-DMT in TRD; details: for Patients who experienced at least one ADR: n=4; for Patients with MADRS remission: n=4, day seven after dosing
Method: Patients were assigned to different groups. In the context of the present invention, the group who received a single, 12 mg dose and the group who underwent an intra-day individualized dosing regimen (IDR) that allowed for multiple, escalating doses (6 mg, 12 mg and 18 mg) within a single day, driven by the intensity of the patient-reported psychedelic experience are of interest.
This trial was designed in two parts. Part A was an open-label, single-arm, single-dose Phase 1 trial with two dose levels (12 mg (n=4) and 18 mg (n=4)). […] The primary endpoint of Part B was to assess the effects on the severity of depression, as assessed by the proportion of patients in remission on day seven after dosing, defined as a MADRS total score of less than or equal to 10.

[2] = Pharmacokinetics of 5-MeO-DMT and bufotenine after inhalation; type: in vivo, human
Method: Blood samples were obtained at 1; 2; 4; 7; 10; 15; 20; 30; 45 min and 1; 1.5; 2; 3; 4 hours after administration.
PK parameters were generated by algebraic analysis of the concentration versus time plots for each individual. The analysis was carried out using the software Phoenix WinNonlin 6.3.

[3] = TRD, 12 mg n=4, 2 hours after dose, baseline 16
[4] = TRD, 12 mg n=4, 3 hours after dose, baseline 18
[5] = TRD, 12 mg n=4, 3 hours after dose, baseline 25
[6] = TRD, 12 mg n=4, day 1, baseline 12
[7] = TRD, 12 mg n=4, day 1, baseline 13
[8] = TRD, 12 mg n=4, day 1, baseline 16
[9] = TRD, 12 mg n=4, day 1, baseline 25
[10] = TRD, 12 mg n=4, day 7, baseline 12
[11] = TRD, 12 mg n=4, day 7, baseline 13
[12] = TRD, 12 mg n=4, day 7, baseline 16
[13] = TRD, 12 mg n=4, day 7, baseline 25
[14] = TRD, IDR n=8, 2 hours after last dose, baseline 27
[15] = TRD, IDR n=8, 2 hours after last dose, baseline 28
[16] = TRD, IDR n=8, day 1, baseline 25
[17] = TRD, IDR n=8, day 1, baseline 27
[18] = TRD, IDR n=8, day 7, baseline 25
[19] = TRD, IDR n=8, day 7, baseline 27
[20] = TRD, IDR n=8, day 7, baseline 30

COc1ccc2[nH]cc(CCN(C)C)c2c1 [5-MeO-DMT]
Changes in safety laboratory analyses, vital signs, psychiatric safety assessments, measures of cognitive function ([1]; Part A and Part B): No clinically significant changes | SAEs reported ([1]; Part A, 12 mg and 18 mg groups): No SAEs | Patients who experienced at least one ADR ([1]; Part A, 12 mg single dose): 3 of 4 | Patients with MADRS remission ([1]; Part A, 12 mg): 50% | Patients who experienced at least one ADR ([1]; Part A, 18 mg single dose): 3 of 4 | Patients with MADRS remission ([1]; Part A, 18 mg): 25% | Outcome of ADRs ([1]; Part B, IDR, n=8): All ADRs resolved spontaneously | SAEs reported ([1]; Part B, IDR, n=8): No SAEs | MADRS Suicidal Thoughts, sum of patient scores ([1]; TRD, 12 mg n=4, 2 hours after dose, baseline 8): 3 | MADRS Inner Tension, sum of patient scores ([1]; TRD, 12 mg n=4, 2 hours after dose, baseline 13): 2 | MADRS Concentration Difficulties, sum of patient scores [1, 3]: 7 | MADRS Inability to Feel, sum of patient scores [1, 3]: 9 | MADRS Lassitude, percentage improvement [1, 3]: 38% | MADRS Lassitude, sum of patient scores [1, 3]: 10 | MADRS Pessimistic Thoughts, percentage improvement [1, 3]: 50.00% | MADRS Pessimistic Thoughts, sum of patient scores [1, 3]: 8 | BPRS Blunted Affect, sum of patient scores ([1]; TRD, 12 mg n=4, 3 hours after dose, baseline 11): 8 | BPRS Emotional Withdrawal, sum of patient scores ([1]; TRD, 12 mg n=4, 3 hours after dose, baseline 13): 11 | BPRS Tension, sum of patient scores ([1]; TRD, 12 mg n=4, 3 hours after dose, baseline 14): 9 | BPRS Guilt Feelings, percentage improvement [1, 4]: 50.00% | BPRS Guilt Feelings, sum of patient scores [1, 4]: 9 | BPRS Anxiety, percentage improvement [1, 5]: 56.00% | BPRS Anxiety, sum of patient scores [1, 5]: 11 | MADRS Suicidal Thoughts, sum of patient scores ([1]; TRD, 12 mg n=4, day 1, baseline 8): 5 | BPRS Blunted Affect, sum of patient scores ([1]; TRD, 12 mg n=4, day 1, baseline 11): 6 | MADRS Reduced Sleep, percentage improvement [1, 6]: 17% | MADRS Reduced Sleep, sum of patient scores [1, 6]: 10 | BPRS Emotional Withdrawal, sum of patient scores [1, 7]: 8 | MADRS Inner Tension, sum of patient scores [1, 7]: 3 | BPRS Tension, sum of patient scores ([1]; TRD, 12 mg n=4, day 1, baseline 14): 6 | MADRS Concentration Difficulties, sum of patient scores [1, 8]: 2 | MADRS Inability to Feel, sum of patient scores [1, 8]: 1 | MADRS Lassitude, percentage improvement [1, 8]: 100% | MADRS Lassitude, sum of patient scores [1, 8]: 0 | MADRS Pessimistic Thoughts, sum of patient scores [1, 8]: 7 | BPRS Guilt Feelings, sum of patient scores ([1]; TRD, 12 mg n=4, day 1, baseline 18): 5 | BPRS Anxiety, percentage improvement [1, 9]: 76.00% | BPRS Anxiety, sum of patient scores [1, 9]: 6 | MADRS Suicidal Thoughts, sum of patient scores ([1]; TRD, 12 mg n=4, day 7, baseline 8): 7 | BPRS Blunted Affect, sum of patient scores ([1]; TRD, 12 mg n=4, day 7, baseline 11): 5 | MADRS Reduced Sleep, percentage improvement [1, 10]: 50% | MADRS Reduced Sleep, sum of patient scores [1, 10]: 6 | BPRS Emotional Withdrawal, sum of patient scores [1, 11]: 6 | MADRS Inner Tension, sum of patient scores [1, 11]: 5 | BPRS Tension, sum of patient scores ([1]; TRD, 12 mg n=4, day 7, baseline 14): 6 | MADRS Concentration Difficulties, sum of patient scores [1, 12]: 3 | MADRS Inability to Feel, sum of patient scores [1, 12]: 1 | MADRS Lassitude, percentage improvement [1, 12]: 81% | MADRS Lassitude, sum of patient scores [1, 12]: 3 | MADRS Pessimistic Thoughts, percentage improvement [1, 12]: 50.00% | MADRS Pessimistic Thoughts, sum of patient scores [1, 12]: 8 | BPRS Guilt Feelings, sum of patient scores ([1]; TRD, 12 mg n=4, day 7, baseline 18): 5 | BPRS Anxiety, percentage improvement [1, 13]: 76.00% | BPRS Anxiety, sum of patient scores [1, 13]: 6 | MADRS Suicidal Thoughts, sum of patient scores ([1]; TRD, IDR n=8, 2 hours after last dose, baseline 11): 3 | MADRS Inner Tension, sum of patient scores ([1]; TRD, IDR n=8, 2 hours after last dose, baseline 26): 11 | MADRS Lassitude, percentage improvement [1, 14]: 63% | MADRS Lassitude, sum of patient scores [1, 14]: 10 | MADRS Pessimistic Thoughts, percentage improvement [1, 15]: 75.00% | MADRS Pessimistic Thoughts, sum of patient scores [1, 15]: 7 | MADRS Concentration Difficulties, sum of patient scores ([1]; TRD, IDR n=8, 2 hours after last dose, baseline 30): 11 | MADRS Inability to Feel, sum of patient scores ([1]; TRD, IDR n=8, 2 hours after last dose, baseline 36): 12 | BPRS Emotional Withdrawal, sum of patient scores ([1]; TRD, IDR n=8, 3 hours after last dose, baseline 13): 8 | BPRS Blunted Affect, sum of patient scores ([1]; TRD, IDR n=8, 3 hours after last dose, baseline 15): 11 | BPRS Tension, sum of patient scores ([1]; TRD, IDR n=8, 3 hours after last dose, baseline 16): 11 | BPRS Guilt Feelings, sum of patient scores ([1]; TRD, IDR n=8, 3 hours after last dose, baseline 34): 14 | BPRS Anxiety, sum of patient scores ([1]; TRD, IDR n=8, 3 hours after last dose, baseline 37): 19 | MADRS Suicidal Thoughts, sum of patient scores ([1]; TRD, IDR n=8, day 1, baseline 11): 1 | BPRS Emotional Withdrawal, sum of patient scores ([1]; TRD, IDR n=8, day 1, baseline 13): 8 | BPRS Blunted Affect, sum of patient scores ([1]; TRD, IDR n=8, day 1, baseline 15): 8 | BPRS Tension, sum of patient scores ([1]; TRD, IDR n=8, day 1, baseline 16): 11 | MADRS Reduced Sleep, percentage improvement [1, 16]: 52% | MADRS Reduced Sleep, sum of patient scores [1, 16]: 12 | MADRS Inner Tension, sum of patient scores ([1]; TRD, IDR n=8, day 1, baseline 26): 6 | MADRS Lassitude, percentage improvement [1, 17]: 81% | MADRS Lassitude, sum of patient scores [1, 17]: 5 | MADRS Pessimistic Thoughts, sum of patient scores ([1]; TRD, IDR n=8, day 1, baseline 28): 4 | MADRS Concentration Difficulties, sum of patient scores ([1]; TRD, IDR n=8, day 1, baseline 30): 1 | BPRS Guilt Feelings, sum of patient scores ([1]; TRD, IDR n=8, day 1, baseline 34): 11 | MADRS Inability to Feel, sum of patient scores ([1]; TRD, IDR n=8, day 1, baseline 36): 2 | BPRS Anxiety, sum of patient scores ([1]; TRD, IDR n=8, day 1, baseline 37): 16 | MADRS Suicidal Thoughts, sum of patient scores ([1]; TRD, IDR n=8, day 7, baseline 11): 3 | BPRS Emotional Withdrawal, sum of patient scores ([1]; TRD, IDR n=8, day 7, baseline 13): 8 | BPRS Blunted Affect, sum of patient scores ([1]; TRD, IDR n=8, day 7, baseline 15): 8 | BPRS Tension, sum of patient scores ([1]; TRD, IDR n=8, day 7, baseline 16): 10 | MADRS Reduced Sleep, percentage improvement [1, 18]: 64% | MADRS Reduced Sleep, sum of patient scores [1, 18]: 9 | MADRS Inner Tension, sum of patient scores ([1]; TRD, IDR n=8, day 7, baseline 26): 12 | MADRS Lassitude, percentage improvement [1, 19]: 89% | MADRS Lassitude, sum of patient scores [1, 19]: 3 | MADRS Pessimistic Thoughts, sum of patient scores ([1]; TRD, IDR n=8, day 7, baseline 28): 3 | MADRS Concentration Difficulties, percentage improvement [1, 20]: 70.00% | MADRS Concentration Difficulties, sum of patient scores [1, 20]: 9 | BPRS Guilt Feelings, sum of patient scores ([1]; TRD, IDR n=8, day 7, baseline 34): 10 | MADRS Inability to Feel, sum of patient scores ([1]; TRD, IDR n=8, day 7, baseline 36): 6 | BPRS Anxiety, sum of patient scores ([1]; TRD, IDR n=8, day 7, baseline 37): 17 | Detectability in plasma ([2]; 3 hours after inhalation, whole dose range 6, 12, 18 mg): no longer detectable | Pharmacokinetic measurements with uptitration dosing schemes ([2]; compared with single doses): Substantially similar results
